Laboratory results published in patent publication US20100009934A1, “BETA ADRENERGIC RECEPTOR AGONISTS FOR THE TREATMENT OF B-CELL PROLIFERATIVE DISORDERS” (CombinatoRx, Incorporated, priority 2008, published 2010).
Values joined by “and” are separate entries in the source; they are usually repeats but may differ in a detail not shown here. Equal entries are not always repeated. Where two headings read alike, the source gives them in different places.

How the values were obtained:
[1] = tested on: Diffuse Large B-Cell Lymphoma Cell Line OCI-Ly10; assay: Anti-proliferation assay (ATPLite, 72 hours), OCI-ly10; type: cell-based; conditions: DEX μM r7-r15: 0.101, 0.033666667, 0.011222222, 0.003740741, 0.001246914, 0.000415638, 0.000138546, 0.000046182, 0
From the text: Combinations were ranked initially by Additivity Excess Volume, which is defined as ADD Volume=ΣCX, CY (Idata−ILoewe), where ILoewe(CX, CY) is the inhibition that satisfies (CX/ECX)+(CY/ECY)=1, and ECX,Y are the effective concentrations at ILoewe for the single agent curves.

MM.1S cells [2] = assay: Annexin V / propidium iodide apoptosis assay, MM.1S; type: cell-based, human; conditions: 0.3 nM salmeterol, 72 hours (FIG. 2)
Protocol: Effects on cell viability were determined by measuring the percent of cells that were annexin V positive (an early marker for apoptosis) and by measuring the percent of cells propidium iodide (PI) positive, an indicator that cellular membranes are compromised and a marker of cell death.

RPMI-8226 cells = conditions: 2 nM salmeterol for 5 hours, soft agar, three weeks; 740 colonies without drugs
Protocol: The effect of BAR agonists on cells grown in soft agar was also determined. This approach allows the measurement of long term cell viability after single agent or combination treatment. […] Cells were washed and plated in soft agar. After three weeks colonies were counted to determine cell viability.

[3] = tested on: Human Multiple Myeloma Cells (MM.1S) cultured in the presence of BAR agonist for one month; assay: Antiproliferative activity on MM.1S cultured one month in the presence of salmeterol or salbutamol; type: cell-based; conditions: for percent inhibition of cell proliferation: MM.1S cultured in Salmeterol for one month (final 64 nM), DEX (μM): 2.0, 0.666, 0.23, 0.074, 0.024, 0.0082, 0.00274, 0.0009, 0
From the text: A recurrent problem in cancer therapy is that prolonged exposure of tumor cells to chemotherapeutic agents can generate cells resistant to agents that initially have antiproliferative or cell killing activity. […] Cells cultured for one month in the presence of BAR agonist were washed to remove drug and put into 384 well plates for 9×9 dose matrix combination screening with BAR agonists and dexamethasone.

MM.1S cells [4] = assay: Annexin V/PI FACS assay of control MM.1S and cells cultured one month with salmeterol or salbutamol; type: cell-based, human; conditions: 250 pM salmeterol
Protocol: Forty eight hours later, the percent of cells positive for Annexin V and propidium iodide (PI) was determined using FACS (FIG. 5).

[5] = tested on: human multiple myeloma xenografts (MM1S); assay: MM.1S xenograft model in SCID mice; type: in vivo, mouse; conditions: Dex 1 mg/kg or salmeterol 10 mg/kg, subcutaneous daily
Protocol: The human multiple myeloma cell line MM1S was injected subcutaneously into the flanks of SCID mice. Five days following the injection of MM1S cells, animals were randomized into the following four treatment groups (n=6-7) based on tumor size.
Group 1—Vehicle (90% PBS+10% EtOH)
The prepared test, positive, and negative control substances were administered via subcutaneous injection daily for up to 85 Days. During the treatment period, tumor volume and animal body weights were measured 3 times per week (Monday, Wednesday and Friday). The animals were removed from the study if there was overall poor body condition, tumor volume above 3000 mm^3, body weight loss greater than or equal to 20% or ulcerated tumors.
The slope of the tumor volume growth of each animal was calculated from the initial study day until the day each animal was removed from the study. From these slopes the mean change in tumor volume per study day was calculated.

[6] = tested on: Human Multiple Myeloma Cells (MM.1S); conditions: 10 ng/ml IL-6 vs no IL-6 (Tables 52 and 53)
[7] = tested on: Human Multiple Myeloma Cells (MM.1S); assay: cells; conditions: MM1.S
[8] = tested on: Human Multiple Myeloma Cells (EJM); assay: Anti-proliferation assay (ATPLite, 72 hours), EJM; conditions: DEX μM r7-r15: 2.03, 0.675, 0.225, 0.075, 0.025, 0.00834, 0.00278, 0.00093, 0
[9] = tested on: Human Multiple Myeloma Cells (MM.1S); assay: Anti-proliferation assay (ATPLite, 72 hours), MM.1S
[10] = tested on: Human Multiple Myeloma Cells (ANBL-6); assay: Anti-proliferation assay (ATPLite, 72 hours), ANBL-6; conditions: for Antiproliferative Activity: Salmeterol 0.00000506 μM
[11] = tested on: multiple myeloma tumor cells from patients; assay: MTT cell viability assay, multiple myeloma patient tumor cells; conditions: Homo sapiens, 48 h
From the text: Tumor cells were obtained via bone marrow aspirates and affinity selected using CD138-linked magnetic beads.

[12] = read-out: percent inhibition of cell proliferation, +10 ng/ml IL-6, Salmeterol […], DEX (μM) by row: r9 0.15, r10 0.076, r11 0.038, r12 0.019, r13 0.0096, r14 0
[13] = read-out: percent inhibition of cell proliferation, salmeterol […], 10 ng/mL IL-6
[14] = read-out: percent inhibition of cell proliferation, salmeterol […], no IL-6
[15] = Homo sapiens, MM1.S, read-out: percent inhibition of cell proliferation
[16] = read-out: Reduction in Cell Viability

SMILES: OCc1cc(C(O)CNCCCCCCOCCCCc2ccccc2)ccc1O (centres unmarked) [salmeterol]
- Antiproliferative Activity ([1]; Salmeterol 0.001055 μM): 5.9
- Antiproliferative Activity ([1]; Salmeterol 0.003165 μM): 6.3
- Antiproliferative Activity ([1]; Salmeterol 0.009494 μM): 9.1
- Antiproliferative Activity ([1]; Salmeterol 0.028481 μM): −0.6
- Antiproliferative Activity ([1]; Salmeterol 0.085444 μM): 6.3
- Antiproliferative Activity ([1]; Salmeterol 0.256333 μM): 27
- induction of MM.1S cell apoptosis (MM.1S cells [2]): ~40%
- colony number per 10,000 cells plated (RPMI-8226 cells): 360 colonies
- percent inhibition of cell proliferation ([3]; Salmeterol 0.00008 μM): 6.1%
- percent inhibition of cell proliferation ([3]; Salmeterol 0.02 μM): 5.6%
- inhibition of proliferation ([3]; […] salmeterol, cells cultured one month in salmeterol (64 nM), Table 48): 4.1%
- single agent sensitivity after culture in 64 nM salmeterol ([3]; cells cultured one month in salmeterol (Table 48)): no longer sensitive
- sensitivity (Annexin V/PI) (MM.1S cells [4]; cells treated for one month with salmeterol or salbutamol, 48 hours): not sensitive
- Annexin V/PI+ cells (MM.1S cells [4]; control cells, 48 hours (FIG. 5)): 20%
- study day by which all animals of the group were removed [5]: ≤ 43 study day
- effect of IL-6 on antiproliferative activity [6]: increased at each concentration tested
- inhibition at 32 pM [7, 12]: 22%
- inhibition at […] [7, 12]: 52%
- inhibition at 32 pM ([7]; read-out: percent inhibition of cell proliferation, no IL-6, Salmeterol […], DEX (μM) by row: r9 0.15, r10 0.076, r11 0.038, r12 0.019, r13 0.0096, r14 0): 21%
- inhibition at 100 fM ([7]; read-out: percent inhibition of cell proliferation, salmeterol 0.1 pM, 10 ng/mL IL-6): 19%
- inhibition at 100 fM ([7]; read-out: percent inhibition of cell proliferation, salmeterol 0.1 pM, no IL-6): 11%
- inhibition at 200 fM ([7]; read-out: percent inhibition of cell proliferation, salmeterol 0.2 pM, 10 ng/mL IL-6): 30%
- inhibition at 200 fM ([7]; read-out: percent inhibition of cell proliferation, salmeterol 0.2 pM, no IL-6): 25%
- inhibition at 400 fM ([7]; read-out: percent inhibition of cell proliferation, salmeterol 0.4 pM, 10 ng/mL IL-6): 36%
- inhibition at 400 fM ([7]; read-out: percent inhibition of cell proliferation, salmeterol 0.4 pM, no IL-6): 30%
- inhibition at […] ([7]; read-out: percent inhibition of cell proliferation, salmeterol 160 pM, 10 ng/mL IL-6): 59%
- inhibition at […] ([7]; read-out: percent inhibition of cell proliferation, salmeterol 160 pM, no IL-6): 50%
- inhibition at […] ([7]; read-out: percent inhibition of cell proliferation, salmeterol 320 pM, 10 ng/mL IL-6): 66%
- inhibition at […] ([7]; read-out: percent inhibition of cell proliferation, salmeterol 320 pM, no IL-6): 59%
- inhibition at 25 fM [7, 13]: 2.8%
- inhibition at 51 fM [7, 13]: 8.6%
- inhibition at 810 fM [7, 13]: 54%
- inhibition at 25 fM [7, 14]: 5%
- inhibition at 51 fM [7, 14]: 6.7%
- inhibition at 810 fM [7, 14]: 43%
- Antiproliferative Activity ([8]; Salmeterol 0.000158 μM): 38.1
- Antiproliferative Activity ([8]; Salmeterol 0.000316 μM): 47.7
- Antiproliferative Activity ([8]; Salmeterol 0.00506 μM): 47.9
- inhibition at 9.1 pM [9, 15]: 4.9%
- inhibition at 27 pM [9, 15]: 7.1%
- inhibition at 80 pM [9, 15]: 25%
- inhibition at 0.02 µM [9, 15]: 59%
- percent inhibition of cell proliferation ([9]; SAHA 0 μM (single agent), Salmeterol (nM) by row: r7 0.011, r8 0.0036, r9 0.0012, r10 0.0004, r11 0.00013, r12 0.000045): 70%
- Antiproliferative Activity ([9]; Salmeterol 0.00000506 μM, BORT μM r7-r15: 0.0405, 0.0203, 0.0101, 0.00506, 0.00253, 0.00127, 0.000633, 0.000316, 0): 16.9%
- Antiproliferative Activity ([10]; DEX μM r7-r15: 2.03, 0.675, 0.225, 0.075, 0.025, 0.00834, 0.00278, 0.00093, 0): 18.6
- Antiproliferative Activity ([10]; LEN μM r7-r15: 4.04, 2.02, 1.01, 0.505, 0.253, 0.126, 0.0632, 0.0316, 0): 34.7
- percent inhibition of cell proliferation ([10]; Trequinsin 0 μM (single agent), SAL (μM): 0.0203, 0.0101, 0.00506, 0.00253, 0.00127, 0.000633, 0.000316, 0.000158): 54% and 55.7% and 58.4% and 54.8% and 50.7% and 58% and 54.7% and 55%
- cytotoxicity at 12.5 pM [11, 16]: -0.2%
- cytotoxicity at 25 pM [11, 16]: 12%
- cytotoxicity at 50 pM [11, 16]: 13%
- cytotoxicity at 0.0001 µM [11, 16]: 35%
- cytotoxicity at 0.0002 µM [11, 16]: 40%
- cytotoxicity at 0.0004 µM [11, 16]: 38%
- cytotoxicity at 0.0008 µM [11, 16]: 44%
- cytotoxicity at 0.0004 µM ([11]; read-out: activity (reduction in cell viability)): 38%
- viability at 0.001 µM ([11]; read-out: tumor cell viability): 80%
